Experimental data: patent publication US20140206559A1, “ASSAY FOR […] OF TUMOR CELLS” (PRESIDENT AND FELLOWS OF HARVARD COLLEGE, priority 2011, published 2014)

Tested on: invasive cells (PC-3 and DU-154)
Assay: three-dimensional in vitro invasion assay (CiGiP, paper-Matrigel layers, calcein stain)
Assay type: cell-based
Details: PC-3 and DU-154 prostate cancer cells in stacked paper-Matrigel layers; 1-5 days culture of stacked layers; inhibitor of actin-based motility present
Procedure: The following invasive potential of the cell lines were assessed using the 3D in vitro assay as disclosed herein: Breast cancer cells; triple negative highly invasive cell line MDA-MB-231. Prostate cancer cells: highly invasive PC-3 and DU-154 isolate from bone and brain metastases, weakly invasive LNCaP and CWR-22 lines. Control cells included normal prostate epithelial cells (RWPE-1) and fibroblasts (HIN 3T3) as negative controls.
Permeation of the suspension of cells in Matrigel into paper yielded thin (200 μm) layers of Matrigel with cells trapped within [Derda et al, PNAS 2009; Derda et al, PLoS submitted]. […] The inventors also assessed other combinations of different numbers of seed-substrates and different numbers of receiving-substrates.
After additional 1-5 days of culture of the 3-D assay of stacked layers, the layers were separated by peeling apart and the amount of cells (e.g., the number, density or quantity) of cells in one or more receiving layer was measured, and optionally the amount of the amount of cells (e.g., the number, density or quantity) of cells in the seed-substrate layer. […]
To measure the quantity of cells in each layer, the layers were incubated in solution of calcein which stains viable cells and the layers were imaged using fluorescent scanner at 100 micron resolution. […]

C=C1[C@@H](C)[C@H]2[C@H](Cc3ccccc3)NC(=O)[C@]23[C@H](OC(C)=O)/C=C/[C@@](C)(O)C(=O)[C@@H](C)C/C=C/[C@H]3[C@@H]1O [cytoclasin D]
invasion of the upper "receiver-substrate" layer by invasive cells: blocked
